Measured values reported in PubChem BioAssay (NCI).
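In this assay, cells in 96-well plates receive the compound at five concentrations for 48 hours. Endpoints are linearly interpolated between the surrounding concentrations. The concentration for 50% growth inhibition is given as GI50. The concentration for full growth arrest is given as TGI.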

Experiments:
Assay in all cases: DTP human tumour cell line panel, 48 h
[1] = test system: HOP-62 NSCLC
[2] = test system: A549 NSCLC
[3] = test system: SR leukemia
[4] = test system: COLO 205 colon
[5] = test system: IGROV1 ovarian
[6] = test system: SNB-19 CNS
[7] = test system: MOLT-4 leukemia
[8] = test system: UACC-257 melanoma
[9] = test system: HCT-15 colon
[10] = test system: T-47D breast

Work on `CC1CC[C@]2(C(=O)O)CCC3(C)C(=CC(=O)C4[C@@]5(C)CCC(=O)C(C)(C)C5CC[C@]43C)[C@@H]2[C@H]1C` (stereo not given in full) yielded a TGI [1] of 46.3 µM, a TGI [2] of over 100 µM and a TGI [3] of 37.5 µM. It also gave a TGI [4] of 33.7 µM, a TGI [5] of over 100 µM and a TGI [6] of over 100 µM. For the same molecule, the TGI [7] was 32.2 µM and the TGI [8] was 96.9 µM.
`O=C(Cc1ccccc1)NN1C(=O)C(Cl)C1c1cc(Br)ccc1O` (stereo not given) gave a TGI [1] of 52.9 µM, a TGI [2] of over 100 µM and a TGI [3] of over 100 µM. It also gave a TGI [4] of over 100 µM, a TGI [5] of over 100 µM and a TGI [6] of 47.9 µM. For the same molecule, the TGI [9] was over 100 µM, the TGI [7] was 8.07 µM and the TGI [8] was over 100 µM.
`Cc1ccc(C(=O)CN(/C=C/C(=O)C(F)(F)F)c2ccc(S(N)(=O)=O)cc2)cc1` was tested, and the GI50 [1] was over 100 µM, the TGI [1] was over 100 µM and the GI50 [10] was 70.1 µM. It also gave a TGI [10] of over 100 µM, a GI50 [2] of 63.5 µM and a TGI [2] of over 100 µM. For the same molecule, the GI50 [4] was over 100 µM, the TGI [4] was over 100 µM and the GI50 [5] was over 100 µM. For the same molecule, the TGI [5] was over 100 µM, the GI50 [9] was 86 µM and the TGI [9] was over 100 µM. It also gave a GI50 [7] of 44 µM, a TGI [7] of over 100 µM and a GI50 [8] of over 100 µM. It also gave a TGI [8] of over 100 µM.
`CCOC(=O)C1=C(C)N(NC(=O)Nc2ccccc2)C(=O)C1=P(c1ccccc1)(c1ccccc1)c1ccccc1` gave a TGI [1] of over 100 µM, a TGI [2] of over 100 µM and a TGI [3] of 56.1 µM. It also gave a TGI [4] of 56.4 µM, a TGI [5] of over 100 µM and a TGI [6] of over 100 µM. It also gave a TGI [9] of over 100 µM, a TGI [7] of 65.6 µM and a TGI [8] of over 100 µM.
`COc1cc(C(C)O)c[n+](CCc2c[nH]c3ccccc23)c1` (stereo not given) was tested, and the TGI [1] was over 100 µM, the TGI [2] was over 100 µM and the TGI [3] was over 100 µM. It also gave a TGI [4] of over 100 µM, a TGI [5] of over 100 µM and a TGI [6] of over 100 µM. The TGI [9] was over 100 µM, the TGI [7] was over 100 µM and the TGI [8] was over 100 µM.
For `CC(=O)[O-].CCN(CC)c1ccc(C=NCCN=Cc2ccc(N(CC)CC)cc2[O-])c([O-])c1.[Mn+3]`, the GI50 [1] was 19.2 µM, the TGI [1] was 39.1 µM and the GI50 [2] was 34.5 µM. It also gave a TGI [2] of over 100 µM, a GI50 [3] of 22.3 µM and a TGI [3] of 67.4 µM. The GI50 [4] was 18.6 µM, the TGI [4] was 32.8 µM and the GI50 [5] was 29.6 µM. For the same molecule, the TGI [5] was 80.3 µM, the GI50 [6] was 19.9 µM and the TGI [6] was 42.8 µM. It also gave a GI50 [9] of over 100 µM, a TGI [9] of over 100 µM and a GI50 [7] of 36.5 µM. It also gave a TGI [7] of over 100 µM, a GI50 [8] of 23 µM and a TGI [8] of 55.5 µM.
Molecule `C1=CC2SSSC2C1` (stereo not given) has a TGI [1] of over 100 µM, a TGI [2] of over 100 µM and a TGI [3] of over 100 µM. For the same molecule, the TGI [4] was over 100 µM, the TGI [5] was over 100 µM and the TGI [6] was over 100 µM. For the same molecule, the TGI [9] was over 100 µM, the TGI [7] was over 100 µM and the TGI [8] was over 100 µM.
Molecule `Clc1nc(Cl)c(Cl)c(-c2ccccc2)n1` has a TGI [1] of 18.1 µM, a TGI [2] of 27.9 µM and a TGI [5] of 31.1 µM. For the same molecule, the TGI [6] was 33.3 µM, the TGI [9] was over 100 µM and the TGI [7] was 3.99 µM. It also gave a TGI [8] of 44.2 µM.
Work on `C[C@@H]1CC(=O)C2CCCC1C2=O` (stereo not given in full) yielded a TGI [1] of over 100 µM, a TGI [2] of over 100 µM and a TGI [3] of over 100 µM. For the same molecule, the TGI [4] was over 100 µM, the TGI [5] was over 100 µM and the TGI [6] was over 100 µM. The TGI [9] was over 100 µM, the TGI [7] was over 100 µM and the TGI [8] was over 100 µM.
`NCCCCN(CCCN)/[N+]([O-])=N\O` showed a TGI [1] of over 100 µM, a TGI [2] of over 100 µM and a TGI [3] of over 100 µM. For the same molecule, the TGI [4] was over 100 µM, the TGI [5] was over 100 µM and the TGI [6] was over 100 µM. It also gave a TGI [9] of over 100 µM, a TGI [7] of over 100 µM and a TGI [8] of over 100 µM.
`CC(C)C(Nc1c2ccccc2nc2ccccc12)C(=O)O` (stereo not given) was tested, and the TGI [2] was over 100 µM, the TGI [3] was over 100 µM and the TGI [4] was over 100 µM. For the same molecule, the TGI [5] was over 100 µM, the TGI [6] was over 100 µM and the TGI [9] was over 100 µM. For the same molecule, the TGI [7] was over 100 µM and the TGI [8] was over 100 µM.
Molecule `Nn1c(=O)n(Cc2ccccc2)n(-c2ccccc2)c1=O` has a TGI [1] of over 100 µM, a TGI [2] of over 100 µM and a TGI [3] of over 100 µM. For the same molecule, the TGI [5] was over 100 µM, the TGI [6] was over 100 µM and the TGI [7] was over 100 µM. It also gave a TGI [8] of over 100 µM.
`O=C1CCN2C(=O)CCN12` was tested, and the TGI [1] was over 100 µM, the TGI [2] was over 100 µM and the TGI [3] was over 100 µM. For the same molecule, the TGI [4] was over 100 µM, the TGI [6] was over 100 µM and the TGI [7] was over 100 µM. The TGI [8] was over 100 µM.
Work on `COc1cc(C=C2C(=O)NC(=O)NC2=O)cc(OC)c1OC` yielded a TGI [1] of over 100 µM, a TGI [2] of over 100 µM and a TGI [3] of over 100 µM. It also gave a TGI [4] of over 100 µM, a TGI [6] of over 100 µM and a TGI [9] of over 100 µM. It also gave a TGI [7] of over 100 µM and a TGI [8] of over 100 µM.
Molecule `CC1(C)C(=O)N(CCCCCCN2C(=O)C(C)(C)c3ccccc32)c2ccccc21` has a TGI [1] of over 100 µM, a TGI [2] of over 100 µM and a TGI [4] of 55.2 µM. It also gave a TGI [5] of over 100 µM, a TGI [6] of over 100 µM and a TGI [9] of over 100 µM. It also gave a TGI [7] of 60 µM and a TGI [8] of 52 µM.
In the case of `CCOC(=O)CC1(C(=O)OCC)c2[nH]c3ccccc3c2CCN1Cc1ccccc1` (stereo not given), the TGI [1] is reported as 33.6 µM, the TGI [2] is reported as 40.3 µM and the TGI [3] is reported as 52.6 µM. The TGI [4] was 34.3 µM, the TGI [5] was 52.9 µM and the TGI [6] was over 100 µM. The TGI [9] was over 100 µM, the TGI [7] was 49.1 µM and the TGI [8] was 40.5 µM.
